Measured values reported in PMC9405102, “Targeted Modification and Structure-Activity Study of GL-29, an Analogue of the Antimicrobial Peptide Palustrin-2ISb” (Antibiotics, 2022).
≈ marks a conversion by molar mass, not a printed value. Where a SMILES comes first, the peptide text is derived from it.

Columns and labels:
[1] = test system: C. albicans (ATCC CRM 10231); type: cell-based, Candida albicans; conditions: ATCC CRM 10231
Protocol: (§1) The antimicrobial activity of the peptides was determined through the minimum inhibitory concentrations (MICs) and the minimum bactericidal concentration (MBCs) using the broth-dilution method in a 96-well plate, as described in the previous study. Six bacteria, including the Gram-positive bacteria, S. aureus (ATCC CRM 6538), MRSA (ATCC CRM 12493) and E. faecalis (NCTC 12697), the Gram-negative bacteria, E. coli (ATCC CRM 8739), K. pneumoniae (ATCC CRM 43816) and P. aeruginosa (ATCC CRM 9027), the yeast, C. albicans (ATCC CRM 10231) and clinical isolates, S. aureus (B042 V2E1 A), MRSA (B038 V1S1 A), E. coli (ATCC BAA-2340) and K. pneumoniae (ATCC BAA-1705) were used in these assays to evaluate the antimicrobial potency of the two peptides by determining their MICs and MBCs. All bacteria were cultured in MHB and the yeast, C. albicans was cultured in YPD broth overnight. Then, the microorganisms were sub-cultured and diluted to the final concentration of 2 × 10^5 CFU/mL to 5 × 10^5 CFU/mL. The Norfloxacin and amphotericin B were used as positive controls for the bacteria and yeast, respectively. The assay was repeated three times, with five replicates at each time.

E. faecalis (NCTC 12697) [2] = type: cell-based, Enterococcus faecalis; conditions: NCTC 12697
Protocol: as §1

E. faecalis (NCTC 12697) [3] = type: cell-based, Enterococcus faecalis; conditions: NCTC 12697, 24 h
Protocol: (§2) The MBIC and MBEC assays were performed to measure the inhibition and eradication of bacterial biofilm in the presence of different concentrations of peptides. Gram-positive bacteria were inoculated in Luria–Bertani (LB) broth at 37 °C overnight whereas Gram-negative bacteria were inoculated in tryptic soy broth (TSB), and then sub-cultured until reaching the logarithmic growth phase by measuring the OD values at a wavelength of 550nm. For the MBIC assay, 99 µL of diluted bacterial suspension (5 × 10^5 CFU/mL) was mixed with 1 µL of prepared peptide solutions in the wells of a round-bottomed 96-well plate, achieving the final concentrations from 512 to 1 µM, and then incubated at 37 °C for 24 h in a shaking incubator at 200 revolutions per minute (rpm). After this, the plate was washed twice by PBS and fixed with methanol for 30 min. For MBEC assay, 100 µL of diluted bacterial suspension (5 × 10^5 CFU/mL) was seeded into a round-bottomed 96-well plate and incubated at 37 °C for 24 h in a shaking incubator at 200 rpm to obtain mature biofilm. After this, plates were washed twice by PBS and incubated with different concentrations of peptide solution from 512 to 1 µM at 37 °C for 24 h. Afterwards, the plate was washed twice with PBS and fixed with methanol for 30 min. Then, both MBIC and MBEC plates were stained by 130 μL of 0.1% (g/v) crystal violet solutions for 30 min and washed with PBS until no apparent staining was observed. Evaporating crystal violet stains were dissolved by 33% (v/v) acetic acid, and the absorbance values were measured by a Synergy HT Microplate Reader (BioTek, Minneapolis, MN, USA) set to 595 nm. The minimum concentration that inhibited the formation of biofilm was defined when compared to the negative control group, as the MBIC. The minimum concentration that eradicated the biofilm was defined, when compared to the negative control group, as the MBEC. The biofilm assays were performed in triplicate.

MRSA (ATCC CRM 12493) [4] = type: cell-based, methicillin-resistant S. aureus; conditions: ATCC CRM 12493, 24 h
Protocol: as §2

E. coli (ATCC CRM 8739) [5] = type: cell-based, Escherichia coli; conditions: ATCC CRM 8739
Protocol: as §1

E. coli (ATCC CRM 8739) [6] = type: cell-based, Escherichia coli; conditions: ATCC CRM 8739, 24 h
Protocol: as §2

S. aureus (B042 V2E1 A) = type: cell-based, Staphylococcus aureus; conditions: B042 V2E1 A
Protocol: as §1

[7] = test system: S. aureus (ATCC CRM 6538); type: cell-based, Staphylococcus aureus; conditions: ATCC CRM 6538
Protocol: as §1

MRSA (B038 V1S1 A) = type: cell-based, methicillin-resistant S. aureus; conditions: B038 V1S1 A
Protocol: as §1

MRSA (ATCC CRM 12493) [8] = type: cell-based, methicillin-resistant S. aureus; conditions: ATCC CRM 12493
Protocol: as §1

[9] = test system: P. aeruginosa (ATCC CRM 9027); type: cell-based, Pseudomonas aeruginosa; conditions: ATCC CRM 9027, 24 h
Protocol: as §2

[10] = test system: K. pneumoniae (ATCC BAA-1705); type: cell-based, Klebsiella pneumoniae; conditions: ATCC BAA-1705
Protocol: as §1

[11] = test system: K. pneumoniae (ATCC CRM 43816); type: cell-based, Klebsiella pneumoniae; conditions: ATCC CRM 43816
Protocol: as §1

[12] = test system: P. aeruginosa (ATCC CRM 9027); type: cell-based, Pseudomonas aeruginosa; conditions: ATCC CRM 9027
Protocol: as §1

[13] = test system: S. aureus (ATCC CRM 6538); type: cell-based, Staphylococcus aureus; conditions: ATCC CRM 6538, 24 h
Protocol: as §2

[14] = test system: K. pneumoniae (ATCC CRM 43816); type: cell-based, Klebsiella pneumoniae; conditions: ATCC CRM 43816, 24 h
Protocol: as §2

CC[C@H](C)[C@H](NC(=O)[C@H](CCCCN)NC(=O)[C@@H](NC(=O)[C@H](CO)NC(=O)[C@H](CC(N)=O)NC(=O)[C@H](Cc1c[nH]c2ccccc12)NC(=O)[C@H](CC(C)C)NC(=O)CN)[C@@H](C)CC)C(=O)N[C@@H](C)C(=O)NCC(=O)N[C@@H](CCCCN)C(=O)N[C@@H](CCCCN)C(=O)N[C@@H](CC(C)C)C(=O)N[C@@H](Cc1ccccc1)C(=O)N[C@H](C(=O)N[C@@H](CC(N)=O)C(=O)N[C@H](C(=O)N[C@@H](CC(C)C)C(=O)N[C@@H](CC(=O)O)C(=O)N[C@@H](CCCCN)C(=O)N[C@H](C(=O)N[C@@H](CCCNC(=N)N)C(=O)N[C@H]1CSSC[C@@H](C(=O)O)NC(=O)CNC(=O)CNC(=O)[C@H](C)NC(=O)[C@H](C(C)C)NC(=O)[C@H](CCCCN)NC1=O)[C@@H](C)CC)C(C)C)C(C)C [GL-29] (HELM PEPTIDE1{G.L.W.N.S.I.K.I.A.G.K.K.L.F.V.N.V.L.D.K.I.R.C.K.V.A.G.G.C}$PEPTIDE1,PEPTIDE1,23:R3-29:R3$$$V2.0; N-terminus and C-terminus assumed; bridges inferred)
MBC [1]: 256 µM (≈ 801 µg/mL) | MIC [1]: 128 µM (≈ 401 µg/mL) | MBC (E. faecalis (NCTC 12697) [2]): 32 µM (≈ 100 µg/mL) | MIC (E. faecalis (NCTC 12697) [2]): 16 µM (≈ 50.1 µg/mL) | MBEC (E. faecalis (NCTC 12697) [3]): > 512 µM | MBIC (E. faecalis (NCTC 12697) [3]): 16 µM | MBEC (MRSA (ATCC CRM 12493) [4]): 256 µM | MBIC (MRSA (ATCC CRM 12493) [4]): 8 µM | MBC (E. coli (ATCC CRM 8739) [5]): 4 µM (≈ 12.5 µg/mL) | MIC (E. coli (ATCC CRM 8739) [5]): 2 µM (≈ 6.26 µg/mL) | MBEC (E. coli (ATCC CRM 8739) [6]): 128 µM | MBIC (E. coli (ATCC CRM 8739) [6]): 4 µM | MBC (S. aureus (B042 V2E1 A)): 4 µM (≈ 12.5 µg/mL) | MIC (S. aureus (B042 V2E1 A)): 4 µM (≈ 12.5 µg/mL) | MBC [7]: 4 µM (≈ 12.5 µg/mL) | MIC [7]: 4 µM (≈ 12.5 µg/mL) | MBC (MRSA (B038 V1S1 A)): 2 µM (≈ 6.26 µg/mL) | MIC (MRSA (B038 V1S1 A)): 2 µM (≈ 6.26 µg/mL) | MBC (MRSA (ATCC CRM 12493) [8]): 8 µM (≈ 25 µg/mL) | MIC (MRSA (ATCC CRM 12493) [8]): 8 µM (≈ 25 µg/mL) | MBEC [9]: > 512 µM | MBIC [9]: 64 µM | MBC [10]: 4 µM (≈ 12.5 µg/mL) | MIC [10]: 4 µM (≈ 12.5 µg/mL) | MBC [11]: 8 µM (≈ 25 µg/mL) | MIC [11]: 8 µM (≈ 25 µg/mL) | MBC [12]: 16 µM (≈ 50.1 µg/mL) | MIC [12]: 16 µM (≈ 50.1 µg/mL) | MBEC [13]: 128 µM | MBIC [13]: 4 µM | MBEC [14]: > 512 µM | MBIC [14]: 16 µM
